tested on: cellular p-ERK in HCT116 human colorectal carcinoma / A375 human malignant melanoma cell lines; assay: Phospho-ERK cell-based assay (ELISA), Example 4; conditions: in either one of the cell lines (HCT116, A375), 2 h or 24 h exposure
Description: Example 4 Phospho-ERK Cell-Based Assay
Compounds are tested in a cell-based phospho-ERK ELISA using the following cell lines:
HCT116 human colorectal carcinoma (ATCC)
A375 human malignant melanoma (ATCC)
Both cell lines are maintained in DMEM/F12 (1:1) media (Gibco) supplemented with 10% FCS at 37° C. in a 5% CO2 humidified incubator.
Cells are seeded in 96-well plates at 2,000 cells/well and after 24 h they are exposed to different concentrations of compounds in 0.83% DMSO. Cells are grown for a further 2 h or 24 h, fixed with formaldehyde (2% final) and permeabilised with methanol. Following blocking with TBST-3% BSA, fixed cells are incubated with primary antibody (anti-phospho ERK from rabbit) over-night at 4° C. Cells are incubated with Propidium Iodide (DNA fluorescent dye) and detection of cellular p-ERK is performed using an anti-rabbit secondary antibody conjugated to the fluorescent Alexa Fluor 488 dye (Molecular probes). The fluorescence is analysed using the Acumen Explorer (TTP Labtech), a laser-scanning microplate cytometer, and the Alexa Fluor 488 signal is normalised to the PI signal (proportional to cell number).
The EC50 is defined as the concentration at which a given compound achieves a signal half way between the baseline and the maximum response. EC50 values are calculated using the XLfit software package (version 2.0.5).

EC50, < 10 µM:
C[C@@H](O)CONC(=O)c1oc2ccncc2c1Nc1ccc(I)cc1F [Example 117, 3-(2-Fluoro-4-iodo-phenylamino)-furo[3,2-c]pyridine-2-carboxylic acid ((R)-2-hydroxy-propoxy)-amide]
O=C(c1oc2ccncc2c1Nc1ccc(I)cc1F)N1C[C@H](O)C[C@H]1CO [Example 127, (3-(2-fluoro-4-iodophenylamino)furo[3,2-c]pyridin-2-yl)((2S,4R)-4-hydroxy-2-(hydroxymethyl)pyrrolidin-1-yl)methanone]
CC(C)ONC(=O)c1oc2ccncc2c1Nc1ccc(I)cc1F [Example 43, (2-Fluoro-4-iodo-phenylamino)-N-isopropoxyfuro[3,2-c]pyridine-2-carboxamide]
O=C(NOC[C@H](O)CO)c1oc2c(F)cncc2c1Nc1ccc(I)cc1F [Example 159, 7-Fluoro-3-(2-fluoro-4-iodo-phenylamino)-furo[3,2-c]pyridine-2-carboxylic acid ((R)-2,3-dihydroxy-propoxy)-amide]
O=C(NCC[C@H](O)CO)c1oc2ccncc2c1Nc1ccc(I)cc1F [Example 95, 3-(2-fluoro-4-iodophenylamino)-N-((S)-3,4-dihydroxybutyl)furo[3,2-c]pyridine-2-carboxamide]
CSc1ccc(Nc2c(C(=O)NOCCO)oc3c(Cl)cncc23)c(F)c1 [Example 152, 7-Chloro-3-(2-fluoro-4-methylsulfanyl-phenylamino)-furo[3,2-c]pyridine-2-carboxylic acid (2-hydroxy-ethoxy)-amide]
O=C(NOCCO)c1oc2ccncc2c1Nc1ccc(Br)cc1Cl [Example 26, 3-(4-Bromo-2-chloro-phenylamino)-furo[3,2-c]pyridine-2-carboxylic acid (2-hydroxy-ethoxy)-amide]
O=C(c1oc2c(F)cncc2c1Nc1ccc(I)cc1F)N1CC[C@@H](O)C1 [Example 157, [7-Fluoro-3-(2-fluoro-4-iodo-phenylamino)-furo[3,2-c]pyridin-2-yl]-((R)-3-hydroxy-pyrrolidin-1-yl)-methanone]
CN(C)C(=O)c1oc2ccncc2c1Nc1ccc(I)cc1F [Example 83, 3-(2-fluoro-4-iodophenylamino)-N,N-dimethylfuro[3,2-c]pyridine-2-carboxamide]
O=C(NCC(O)CO)c1oc2ccncc2c1Nc1ccc(I)cc1F (centres unmarked) [Example 84, 3-(2-fluoro-4-iodophenylamino)-N-(2,3-dihydroxypropyl)furo[3,2-c]pyridine-2-carboxamide]
O=C(NCCO)c1oc2ccncc2c1Nc1ccc(I)cc1F [Example 82, 3-(2-fluoro-4-iodophenylamino)-N-(2-hydroxyethyl)furo[3,2-c]pyridine-2-carboxamide]
O=C(c1oc2ccncc2c1Nc1ccc(I)cc1F)N1CCC[C@@H]1CO [Example 87, (3-(2-fluoro-4-iodophenylamino)furo[3,2-c]pyridin-2-yl)((R)-2-(hydroxylmethyl)pyrrolidin-1-yl)methanone]
CC1(O)CCN(C(=O)c2oc3ccncc3c2Nc2ccc(I)cc2F)C1 (centres unmarked) [Example 120, (3-(2-fluoro-4-iodophenylamino)furo[3,2-c]pyridine-2-yl)(3-hydroxy-3-methylpyrrolidin-1-yl)methanone]
C[C@@H](CO)NC(=O)c1oc2ccncc2c1Nc1ccc(I)cc1F [Example 76, 3-(2-fluoro-4-iodophenylamino)-N-((S)-1-hydroxypropan-2-yl)furo[3,2-c]pyridine-2-carboxamide]
CONC(=O)c1oc2ccncc2c1Nc1ccc(I)cc1F [Example 29, 3-(2-Fluoro-4-iodo-phenylamino)-furo[3,2-c]pyridine-2-carboxylic acid methoxy-amide]
O=C(c1oc2ccncc2c1Nc1ccc(I)cc1F)N1CC[C@@H](O)C1 [Example 59, (3-(2-fluoro-4-iodophenyl amino)furo[3,2-c]pyridin-2-yl)((R)-3-hydroxypyrrolidin-1-yl)methanone]
C[C@H](O)CONC(=O)c1oc2c(F)cncc2c1Nc1ccc(I)cc1F [Example 155, 7-Fluoro-3-(2-fluoro-4-iodo-phenylamino)-furo[3,2-c]pyridine-2-carboxylic acid ((S)-2-hydroxy-propoxy)-amide]
O=C(c1oc2ccncc2c1Nc1ccc(I)cc1F)N1C[C@@H](O)[C@H](O)[C@H]1CO [Example 124, (3-(2-fluoro-4-iodophenylamino)furo[3,2-c]pyridin-2-yl)((2R,3R,4R)-3,4-dihydroxy-2-(hydroxymethyl)pyrrolidin-1-yl)methanone]
O=C(c1oc2ccncc2c1Nc1ccc(I)cc1F)N1CC[C@H](O)C1 [Example 70, (3-(2-fluoro-4-iodophenylamino)furo[3,2-c]pyridin-2-yl)((S)-3-hydroxypyrrolidin-1-yl)methanone]
CC(C)(CO)ONC(=O)c1oc2c(F)cncc2c1Nc1ccc(I)cc1F [Example 156, 7-Fluoro-3-(2-fluoro-4-iodo-phenylamino)-furo[3,2-c]pyridine-2-carboxylic acid (2-hydroxy-1,1-dimethyl-ethoxy)-amide]
N[C@@H]1CCN(C(=O)c2oc3ccncc3c2Nc2ccc(I)cc2F)C1 [Example 74, (3-(2-fluoro-4-iodophenylamino)furo[3,2-c]pyridin-2-yl)((R)-3-aminopyrrolidin-1-yl)methanone]
CNC(=O)c1oc2ccncc2c1Nc1ccc(I)cc1F [Example 91, 3-(2-fluoro-4-iodophenylamino)-N-methylfuro[3,2-c]pyridine-2-carboxamide]
CC(C)(CO)ONC(=O)c1oc2ccncc2c1Nc1ccc(I)cc1F [Example 113, N-(1-hydroxy-2-methylpropan-2-yloxy)-3-(2-Fluoro-4-iodo-phenylamino)furo[3,2-c]pyridine-2-carboxamide]
O=C(NCCCO)c1oc2ccncc2c1Nc1ccc(I)cc1F [Example 61, 3-(2-fluoro-4-iodophenylamino)-N-(3-hydroxypropyl)furo[3,2-c]pyridine-2-carboxamide]
CCONC(=O)c1oc2ccncc2c1Nc1ccc(I)cc1F [Example 50, (2-Fluoro-4-iodo-phenyl amino)-N-ethoxyfuro[3,2-c]pyridine-2-carboxamide]
CN(CCO)C(=O)c1oc2ccncc2c1Nc1ccc(I)cc1F [Example 81, 3-(2-fluoro-4-iodophenylamino)-N-(2-hydroxyethyl)-N-methylfuro[3,2-c]pyridine-2-carboxamide]
O=C(NCCCONC(=O)c1oc2ccncc2c1Nc1ccc(I)cc1F)c1ccccn1 [Example 46]
CN(OCCO)C(=O)c1oc2ccncc2c1Nc1ccc(I)cc1F [Example 23, 3-(2-Fluoro-4-iodo-phenylamino)-furo[3,2-c]pyridine-2-carboxylic acid (2-hydroxy-ethoxyl)-methyl-amide]
CC(C)CONC(=O)c1oc2ccncc2c1Nc1ccc(I)cc1F [Example 42, (2-Fluoro-4-iodo-phenylamino)-N-isobutoxyfuro[3,2-c]pyridine-2-carboxamide]
O=C(NOc1ccccc1)c1oc2ccncc2c1Nc1ccc(I)cc1F [Example 111, 3-(2-Fluoro-4-iodo-phenylamino)-N-phenyloxyfuro[3,2-c]pyridine-2-carboxamide]
C[C@H](O)CONC(=O)c1oc2ccncc2c1Nc1ccc(I)cc1F [Example 118, 3-(2-Fluoro-4-iodo-phenylamino)-furo[3,2-c]pyridine-2-carboxylic acid ((S)-2-hydroxy-propoxy)-amide]
O=C(c1oc2ccncc2c1Nc1ccc(I)cc1F)N1C[C@H](O)[C@@H](O)C1 [Example 60, (3-(2-fluoro-4-iodophenyl amino)furo[3,2-c]pyridin-2-yl)((3S,4S)-3,4-dihydroxypyrrolidin-1-yl)methanone]
O=C(c1oc2ccncc2c1Nc1ccc(I)cc1F)N1C[C@@H](O)[C@@H](O)C1 [Example 73, (3-(2-fluoro-4-iodophenylamino)furo[3,2-c]pyridin-2-yl)((3S,4R)-3,4-dihydroxypyrrolidin-1-yl)methanone]
CC(O)CONC(=O)c1oc2ccncc2c1Nc1ccc(I)cc1F (centres unmarked) [Example 55, 3-(2-Fluoro-4-iodo-phenylamino)-furo[3,2-c]pyridine-2-carboxylic acid (2-hydroxy-propoxy)-amide]
CC(C)(C)ONC(=O)c1oc2ccncc2c1Nc1ccc(I)cc1F [Example 99, (2-Fluoro-4-iodo-phenylamino)-N-tert-butoxyfuro[3,2-c]pyridine-2-carboxamide]
